# What was measured:
# [1] = system: Iressa-resistant MDA-MB 468 (MDA-MB 468/IR) cells; assay: Orthotopic Iressa-resistant MDA-MB 468 xenograft (mammary fat pad); assay type: in vivo, SCID mice
# Protocol: (§1) For subcutaneous implantation, MDA-MB 468 cells (1×10^7 in 100 µL of sterile Dulbecco's phosphate-buffered saline; PBS) were inoculated into nude mice by subcutaneous injection into the flanks. Each group contained 4 mice that were inoculated with tumor cells on both flanks (n = 8). When the tumors were palpable, mice were grouped randomly into 3–4 groups with 4 mice in each group. The mice were then treated with control vehicle, control scrambled peptide, Y211F CPPP, RF6 CPPP, or D-RF6 CPPP, by intratumoral injection. For orthotopic implantation, tumor xenografts were established by injection of Iressa-resistant MDA-MB 468 (IR) cells (1×10^7 resuspended in a 1∶1 mixture of PBS and Matrigel (BD Biosciences) in a total volume of 100 µL) into the mammary fat pad on either side of each 6–8-week old female severe combined immunodeficient (SCID) mice, respectively. When the tumors were palpable, the mice bearing IR tumor xenografts were treated with control vehicle, control scrambled peptide, D-RF6 CPPP (200 nmol/mouse) by intraperitoneal injection. Tumor growth was monitored 3 times/week for five weeks by measuring tumor perpendicular diameters. Tumor volume (V) was calculated using the following formula: V = length×diameter^2×0.5.
# (§2) Figure 5 The effect of CPPP on tumor growth in vivo. (A) Approximately 1×10^7 MDA-MB 468 cells were subcutaneously injected into the flanks of nude mice. When the tumors were palpable, mice were randomly divided into 4 groups and treated with PBS (Control), scrambled peptide for RF6 (Scramble), RF6 CPPP, or D-RF6 CPPP (200 nmol/mouse) by intratumoral injection. Tumor volume was measured the tumor volume at the indicated time point. (B) The weight of each of the harvested tumors from (A) was measured after treatment. (C) Approximately 1×10^7 Iressa-resistant MDA-MB 468 (MDA-MB 468/IR) cells were injected into the mammary fat pad on either side of SCID mice. When the tumors were palpable, mice were randomly divided into 3 groups and treated with PBS (Control), scrambled peptide for D-RF6 (Scramble), or D-RF6 CPPP (200 nmol/mouse) by intratumoral injection. Tumor volume was measured the tumor volume at the indicated time point. (D) The weight of each of the harvested tumors from (C) was measured after treatment. The curves and bars indicate mean ± S.D.; *, p<0.05; **, p<0.01; ***, p<0.001 by t-test. (E) Extracted tumor tissue lysates from (D), the protein levels of EGFR, p-Y211, PCNA and cleaved-caspase-3 were determined by IB.
# MDA-MB 468 cells [2] = assay: Subcutaneous MDA-MB 468 xenograft; assay type: in vivo, nude mice; details: 200 nmol/mouse, intratumoral injection; for tumor volume compared with control or scrambled peptides / tumor mass compared with control or scrambled peptide group: nude mice; for tumor volume compared with control or scrambled peptides: Fig. 5A, S1A; for tumor mass compared with control or scrambled peptide group: end of experiment, Fig. 5B, S1B
# Protocol: as §1, §2
# Supplementary file pone.0061362.s001.tif: Figure S1 The effect of Y211F CPPP on tumor growth in vivo. (A) Approximately 1×10^7 MDA-MB 468 cells were subcutaneously injected into the flanks of nude mice. When the tumors were palpable, mice were randomly divided into 3 groups and treated with PBS (Control), scrambled peptide for Y211 (Scramble), or Y211F CPPP (200 nmol/mouse) by intratumoral injection. Tumor volume was measured the tumor volume at the indicated time point. (B) The weight of each of the harvested tumors was measured after treatment. The curves and bars indicate mean ± S.D.; *, p<0.05; **, p<0.01; ***, p<0.001 by t-test. (TIF) Click here for additional data file.
# MDA-MB 231 cells [3] = assay: WST-1 cell viability assay; assay type: cell-based, human; details: 24 h
# Protocol: (§3) Cell viability was determined by WST-1 (4-[3-(4-Iodophenyl)-2-(4-nitrophenyl) -2H-5-tetrazolio]-1,3-benzene disulfonate) assay (Roche). Cells were incubated with or without TKI or CPPP. After culturing for another 24 h, one-tenth volume of WST-1 was added at 4 h before harvest, and the absorbance was detected at 450 nm. Cell viability was normalized by the absorbance from the cells without treatment.
# MDA-MB 468 cells [4] = assay: WST-1 cell viability assay; assay type: cell-based, human; details: 24 h
# Protocol: as §3
# MDA-MB 231 cells [5] = assay: Apoptosis assay, Annexin V staining, flow cytometry; assay type: cell-based, human; details: 15 µM, 24 h
# Protocol: (§4) For apoptosis assay using annexin V staining, cells treated with the CPPP for 24 h and the cells were harvested and resuspended in the binding buffer and then incubated with FITC-conjugated Annexin V and propidium iodide (PI), according to the manufacturer's protocol (BD Biosciences). The percentage of apoptotic cells were assessed by flow cytometry.
# MDA-MB 468 cells [6] = assay: as above; assay type: cell-based, human; details: 24 h
# Protocol: as §4
# nEGFR/PCNA = molecular target: T1, nEGFR/PCNA (Homo sapiens, UniProt P00533); assay: Immunoprecipitation/immunoblot of chromatin lysates: nEGFR binding to PCNA; assay type: cell-based; details: 30 µM, 24 h, IP anti-PCNA, IB, Fig. 2B
# T1 construct: endogenous in cells; host or cells: MDA-MB 468 human TNBC cells (chromatin lysates)
# Protocol: Cell extraction, immunoprecipitation and Western blotting were performed as described previously, [29].
# The fluorescent images were observed under a confocal microscopy.
# MDA-MB 468 cells [7] = details: 30 µM FITC-labeled peptide, 12 h, anti-EGFR staining, confocal microscopy, Fig. 2A
# Protocol: Confocal microscopy was performed as previously described [29].
# (A) MDA-MB 468 cells were treated with 30 µM FITC-labeled scrambled (FITC-Scrambled; top) or Y211F CPPP (FITC-Y211F; bottom) for 12 h. Subsequently, cells were fixed, permeabilized, and stained with anti-EGFR antibody or DAPI. The fluorescent images were observed under a confocal microscopy. The FITC-labeled peptide (green), EGFR (red), and nucleus (blue) are shown.
# MCF10A = assay: WST-1 cell viability assay; assay type: cell-based; details: up to 50 µM, 24 h, WST-1, Fig. 1B
# Protocol: as §3
# [8] = system: Tarceva-resistant MDA-MB 468 (TR); assay: WST-1 cell viability assay; assay type: cell-based, human; details: 15 µM, 24 h, Fig. 3E
# Protocol: (§5) Human triple-negative breast cancer (TNBC) cell lines (MDA-MB 468, and MDA-MB 231) were purchased from American Type Culture Collection. All cells were maintained in DMEM/F12 (1∶1) with 10% FBS. EGFR TKI-resistant TNBC cell lines: Iressa-resistant MDA-MB 468 (IR) and Tarceva-resistant MDA-MB 468 (TR) were established by treatment with gradually increasing concentrations of these drugs for over one month. These TKI-resistant clones were cultured in the presence of 1 µM TKIs. The following peptides were synthesized by MDBio, Inc: Y211F CPPP (Y211F; […]); AK10 CPPP (AK10; […]); TF10 CPPP (TF10; […]); TN8 CPPP (TN8; […]); RK8 CPPP (RK8; […]); RF6 CPPP (RF6; […]); D-RF6 CPPP (D-RF6; […]); Scrambled peptides for Y211F (Scramble; […]); Scrambled peptides for RF6 (Scramble; […]). […]
# as §3, with “Cells were incubated with or without TKI or CPPP.” left out
# (§6) Figure 3 The cytotoxic effect of CPPP in TKI-resistant TNBC cells. […] (E–F) The P-, IR-, or TR-TNBC cells were treated with 15 µM Y211F CPPP for 24 h and the relative cell viability (E) and Annexin V-positive cells (F) were determined. […]
# [9] = system: Iressa-resistant MDA-MB 468 (IR); assay: WST-1 cell viability assay; assay type: cell-based, human; details: 15 µM, 24 h, Fig. 3E
# Protocol: as §5
# as §3, with “Cells were incubated with or without TKI or CPPP.” left out
# as §6
# [10] = system: Tarceva-resistant MDA-MB 468 (TR); assay: Apoptosis assay, Annexin V staining; assay type: cell-based, human; details: 15 µM, 24 h, Fig. 3F
# Protocol: as §5, §4, §6
# [11] = system: Iressa-resistant MDA-MB 468 (IR); assay: Apoptosis assay, Annexin V staining; assay type: cell-based, human; details: 15 µM, 24 h, Fig. 3F
# Protocol: as §5, §4, §6
# [12] = extracted tumor tissue lysates, IB, Fig. 5E
# [13] = 15 µM Y211F CPPP combined with 1∼8 µM EGFR TKI (Tarceva or Iressa), Fig. 2C-2F
# [14] = indicated concentrations, WST-1, Fig. 1B
sequence,measurement,setting,value
"YGRKKRRQRRRGRFLNFF [D-RF6 CPPP, synthetic retro-inverted D form derivative of RF6 CPPP]",tumor mass compared with control or scrambled peptides,"[1]; 200 nmol/mouse, SCID mice, harvested tumors, Fig. 5D",significantly reduced tumor volume and mass
same,tumor volume compared with control or scrambled peptides,"[1]; 200 nmol/mouse, SCID mice, intratumoral (Fig. 5C legend) or intraperitoneal (methods) injection",significantly reduced tumor volume and mass
same,PCNA Y211 phosphorylation in tumor tissue,[1]; [12],inhibited
same,cleaved caspase-3 in tumor tissue,[1]; [12],cleaved caspase-3 increased
same,"activity in suppressing tumor growth and reducing tumor volume, on an equimolar basis",MDA-MB 468 cells [2]; compared with Y211F CPPP,more potent than Y211F CPPP
same,growth suppression (relative cell viability) compared with RF6 CPPP,"MDA-MB 231 cells [3]; indicated concentrations, Fig. 4F",enhanced the growth suppression
same,growth suppression (relative cell viability) compared with RF6 CPPP,"MDA-MB 468 cells [4]; indicated concentrations, Fig. 4E",enhanced the growth suppression
same,apoptosis activity (Annexin V-positive cells),MDA-MB 231 cells [5]; Fig. 4G,enhanced the growth suppression and apoptosis activity
same,apoptosis activity (Annexin V-positive cells),"MDA-MB 468 cells [6]; 15 µM, flow cytometry, Fig. 4G",enhanced the growth suppression and apoptosis activity
YGRKKRRQRRRGRFLNFF [RF6 CPPP],tumor volume compared with control or scrambled peptides,MDA-MB 468 cells [2],significantly reduced tumor volume
same,tumor mass compared with control or scrambled peptide group,MDA-MB 468 cells [2],significantly smaller tumor mass
same,relative cell viability,"MDA-MB 468 cells [4]; 50 µM of each CPPP derivative, Fig. 4B",minimal effective peptide
same,apoptosis (Annexin V-positive cells),"MDA-MB 468 cells [6]; 50 µM of each CPPP derivative, Fig. 4C",minimal effective peptide
"YGRKKRRQRRRGTFALRFLNFFTK [Y211F CPPP, TAT-based cell-penetrating PCNA peptide, 12 amino acids flanking Y211 with tyrosine replaced by phenylalanine]",nEGFR binding to PCNA on chromatin,nEGFR/PCNA,prevented nEGFR from binding PCNA
same,targeting of EGFR,MDA-MB 468 cells [7],specifically targeted EGFR
same,tumor volume compared with control or scrambled peptides,MDA-MB 468 cells [2],significantly reduced tumor volume
same,tumor mass compared with control or scrambled peptide group,MDA-MB 468 cells [2],significantly smaller tumor mass
same,"relative cell viability, combination with EGFR TKI",MDA-MB 231 cells [3]; [13],enhanced the effect of both TKIs
same,cancer cells killed,"MDA-MB 231 cells [3]; 50 µM, WST-1, Fig. 1B",more than 80%
same,relative cell viability,MDA-MB 231 cells [3]; [14],suppressed cell viability
same,"relative cell viability, combination with EGFR TKI",MDA-MB 468 cells [4]; [13],enhanced the effect of both TKIs
same,cancer cells killed,"MDA-MB 468 cells [4]; 50 µM, WST-1, Fig. 1B",more than 80%
same,relative cell viability,MDA-MB 468 cells [4]; [14],suppressed cell viability
same,relative cell viability,MCF10A,no effect
same,relative cell viability compared with parental cells,[8],more sensitive
same,relative cell viability compared with parental cells,[9],more sensitive
same,Annexin V-positive cells compared with parental cells,[10],more sensitive
same,Annexin V-positive cells compared with parental cells,[11],more sensitive
same,apoptotic response (Annexin V-positive cells),MDA-MB 231 cells [5]; Fig. 1C,observed only in MDA-MB 468 and MDA-MB 231 cells
same,apoptotic response (Annexin V-positive cells),"MDA-MB 468 cells [6]; 15 µM, flow cytometry, Fig. 1C",observed only in MDA-MB 468 and MDA-MB 231 cells

# — publication PMC3620387, “Targeting the EGFR/PCNA Signaling Suppresses Tumor Growth of Triple-Negative Breast Cancer Cells with Cell-Penetrating PCNA Peptides” (PLoS ONE, 2013)
